In US11938137B2, “Lipid prodrugs of mycophenolic acid and uses thereof” (PureTech LYT, Inc., priority 2017, dated 2024):

How the values were obtained:
[1] = Lymphatic transport assay in mesenteric lymph-duct cannulated rats; format: in vivo, rat; conditions: total MPA related compound, intraduodenal infusion, anesthetised mesenteric lymph-duct cannulated rats; class symbols
Protocol: In order to assess the lymphatic transport of disclosed lipid prodrugs in rats, the mesenteric lymph ducts of the rats used in this study were cannulated to allow continual collection of mesenteric lymph. Lipid formulations containing the compound of interest were then administered to the animals, lymph was collected, and drug concentrations in the lymph samples were quantified.
Lipid-based formulations of the compounds of the invention or control compounds were prepared as previously described (Trevaskis, N. L. et al., Pharmaceutical Research, 2005, 22(11), 1863-1870, WO 2016/023082, and WO 2017/041139, hereby incorporated by reference.
In brief, either 1 or 2 mg of test prodrug, 40 mg oleic acid and 25 mg Tween 80 were mixed in a glass vial and incubated at 37° C. for 12-18 h to equilibrate. An aqueous phase consisting of 5.6 ml phosphate buffered saline (PBS, pH 7.4) was subsequently added to the lipid phase (MPA was dissolved in PBS for the preparation of MPA containing formulations) and the formulation emulsified by ultrasonication with a Misonix XL 2020 ultrasonic processor (Misonix, Farmingdale, NY, USA) equipped with a 3.2-mm microprobe tip running at 30% of the maximal amplitude of 240 μm and a frequency of 20 kHz for 2 min at room temperature. Doses for administering to more than one animal can be prepared in one batch by suitably increasing the quantities given above. Drug/prodrug concentrations in all formulations were verified using HPLC-MS.
Male Sprague-Dawley (SD) rats were selected for the lymphatic transport studies. Rats (typically 240-320 g) were maintained on a standard diet and fasted overnight with free access to water prior to experiments.
Anesthetized rats were placed on a heated pad at 37° C. and cannulas inserted into the duodenum (for formulation administration and rehydration), mesenteric lymph duct (for lymph collection), and carotid artery (in cases where blood collection was conducted). Post-surgery, rats were re-hydrated for 0.5 h via intraduodenal infusion of normal saline at 2.8 mL/h. The lipid formulations were infused into the duodenum at 2.8 mL/h for 2 h after which, normal saline was infused at 2.8 mL/h for the remainder of the experiment. Lymph was continuously collected for up to 8 h into pre-weighed Eppendorf tubes containing 10 μL of 1,000 IU/mL heparin. The collection tubes were changed hourly and lymph flow was measured gravimetrically. Aliquots of hourly lymph samples were stored at −20° C. prior to assay.
Drug concentration in lymph is expressed as total drug and includes free drug and drug associated with different glycerides. Lymph samples are first treated with a lipase or other appropriate conditions to liberate free active agent prior to measurement of active agent levels in the lymph. Treatment with a lipase or other hydrolysis conditions liberates free active agent from any corresponding re-esterified glycerides. Porcine pancreatic lipase is appropriate for this purpose. Alternatively, hydrolysis with 0.5 M NaOH may be used. For MPA “phenol” prodrugs (i.e. prodrugs linked to the triglyceride at the aromatic —OH group of MPA), hydrolysis was performed with 0.5 M NaOH except for the lymph samples collected from 3 rats in the group of compound I-20 (MPA-O-C12α′βMe-TG), which were hydrolyzed by porcine pancreatic lipase.
Transport of compounds into lymph during each hourly collection period was calculated from the product of the volume of lymph collected and the measured concentrations in lymph. For fluorescently-labelled compounds such as a BDP-conjugate, the concentrations of total compound may be measured by fluorescence spectroscopy without hydrolysis.
The results of the lymphatic transport assays are summarized in Table 2, below, and FIGS. 1-19. Table 2 summarizes lymphatic transport of total MPA related compound (% of administered dose) following intraduodenal infusion to anaesthetised, mesenteric lymph-duct cannulated rats. […]

[2] = In vitro release of MPA from prodrugs in plasma supplemented with lipoprotein lipase (LPL); format: in vitro ADME, rat; conditions: for Percentage MPA release at 60 min in LPL supplemented rat plasma: n = 3 unless specified otherwise
Protocol: The percentage of MPA released at 60 minutes in LPL-supplemented rat plasma was also determined for selected compounds. […] The designation “**” indicates a release % of >25% to 50%. The designation “***” indicates a release % of >50% to 75%. The designation “****” indicates a release % of >75%.
In order to probe the release of free drug from TG prodrugs in the systemic circulation, prodrugs were incubated with plasma (rat, mouse, dog, pig or human) supplemented with lipoprotein lipase (LPL, 200 IU/ml). LPL is a key enzyme required for the hydrolysis of lipoprotein associated TG in the systemic circulation and is therefore expected to be a key contributor to lipolysis of the re-esterified drug-TG construct in plasma, largely via liberation of fatty acids in the sn-1 and the sn-3 position of the TG-mimetic, prior to drug release from the 2′ position via esterase hydrolysis. LPL is […] is tethered to the luminal surface of vascular endothelial cells under physiological conditions. In the current in vitro studies, plasma was therefore supplemented with LPL to better reflect the in vivo situation. To start hydrolysis, 10 μl of LPL solution (10,000 IU/ml) was added to a mixture of 10 μl of prodrug solution (1 mg/ml dissolved in acetonitrile) and 500 μl of blank plasma. The mixture was incubated at 37° C. Samples (20 μl) of the incubation solution were taken at 0, 5, 15, 30, 60, 90, 120 and 180 minutes post-incubation and added to 180 μl of MeCN to stop lipolysis. The mixture was vortexed and centrifuged at 4500×g for 5 minutes to precipitate proteins prior to analysis. The supernatant was analyzed by HPLC-MS/MS for the potential products (MG form, acid form, and free drug) of prodrug hydrolysis.

[3] = Prodrug lymph node study in mice (free MPA in mesenteric and peripheral lymph nodes); format: in vivo, mouse; conditions: oral multiple dose study (2 times daily for 2 days, samples on 3rd day)
Excerpt: This experiment included a single and multiple dose study.

[4] = cited from earlier work

SMILES	Cumulative lymphatic transport % dose (Mean ± SD, or Range if n = 2) [1]	Percentage MPA release at 60 min in LPL supplemented rat plasma [2]	monoglyceride (MG) peak ([2]; after 180 min, rat plasma supplemented with LPL)	concentrations of free MPA in mesenteric lymph nodes compared with MPA [3]	bioavailability of testosterone after oral administration of the undecanoate ester [4] [%]
CCCCCCCCCCCCCCCC(=O)OCC(COC(=O)CCCCCCCCCCCCCCC)OC(=O)CC(C)CCCCCCCC(C)C(=O)OCCCCC(=O)Oc1c(C/C=C(\C)CCC(=O)OC)c(OC)c(C)c2c1C(=O)OC2 (stereo not shown) [I-22, (E)-12-(1,3-Bis(palmitoyloxy)propan-2-yl) 1-(5-((6-methoxy-5-(6-methoxy-3-methyl-6-oxohex-2-en-1-yl)-7-methyl-3-oxo-1,3-dihydroisobenzofuran-4-yl)oxy)-5-oxopentyl) 2,10-dimethyldodecanedioate]	A (greater than 10% (>10%))	*** (a release % of >50% to 75%)	almost completely disappeared		
CCCCCCCCCCCCCCCC(=O)OCC(COC(=O)CCCCCCCCCCCCCCC)OC(=O)CC/C(C)=C/Cc1c(O)c2c(c(C)c1OC)COC2=O [I-34, MPA-2-TG]	A (greater than 10% (>10%))	*** (a release % of >50% to 75%)		Much higher concentrations	
CCCCCCCCCCC(=O)O[C@H]1CC[C@H]2[C@@H]3CCC4=CC(=O)CC[C@]4(C)[C@H]3CC[C@]12C [testosterone undecanoate]					< 5
